According to patent US9381349B2, “Apparatus for treating cerebral neurovascular disorders including headaches by neural stimulation” (priority 1997, dated 2016):
“Also recorded” adds a separate entry of the source. Like-named read-outs stand apart in the source and are kept apart here.

Columns and labels:
[1] = in vivo; cited from earlier work
[2] = cited from earlier work
[3] = n-heptane/buffer biphasic system; cited from earlier work
muscular headache = experiment: Dorsonasal administration of bupivacaine for muscular headache episodes (Example 5); type: in vivo, human; conditions: for Pain intensity after administration: 0.75% bupivacaine
Text: The purpose of the experiments described in this Example was to determine the efficacy of dorsonasal administration of bupivacaine for inhibition of muscular headaches. Bupivacaine was dorsonasally administered to four individual patients experiencing head pain and other symptoms associated with a severe muscular headache episode. All of the patients had areas of sustained craniocervical muscle contraction and tenderness which was absent in all patients following headache resolution. Patients assessed head pain prior to and after bupivacaine administration. The four patients and their responses were as follows.

headache [4] = experiment: Dorsonasal headache treatment using bupivacaine (Example 8); type: in vivo, human; conditions: two patients
Method: Two different headache patients were treated by delivering about 0.25-0.75 milliliters of a 0.75% (w/v) bupivacaine solution to each nostril of the patients. The solution was administered by passing the solution along a plastic cannula having an absorbent portion affixed at the distal (i.e., outlet) portion thereof. This cannula had also been bent to conform its shape such that the outlet of the cannula and the affixed absorbent portion were located dorsonasally. The solution was passed along the cannula, and the cannula was left in place for several minutes.

acute migraine episodes [5] = experiment: Dorsonasal administration of bupivacaine for inhibition of acute migraine episodes (Example 2); type: in vivo, human
Text: (§1) The purpose of the experiments described in this Example was to determine the efficacy of dorsonasal administration of bupivacaine for inhibition of acute migraine episodes. Bupivacaine was dorsonasally administered to individual patients experiencing head pain, other symptoms, or both, believed to be associated with an acute migraine episode. Patients assessed head pain prior to and after bupivacaine administration.
The materials and methods used in the procedures performed in this Example were substantially the same as the materials and methods described in Example 1, with the exception that the composition which was administered to the patients described in this example comprised a 0.75% (w/v) solution of bupivacaine.
The organization of and the abbreviations used in Table 6 are analogous to those used in Table 1, with the exception that “B” in the treatment column refers to bupivacaine.

headache [6] = conditions: 10% (w/v) lidocaine solution sprayed through dorsonasal cannula; three patients
Method: The solution was administered by spraying it through a plastic cannula which had been bent to conform its shape such that the outlet of the cannula was located dorsonasally. The cannula was inserted into each nostril, and the solution was sprayed through the cannula, exiting therefrom through the outlet.

migraine [7] = conditions: intranasal spray of 1-2 milliliters 4% (w/v) lidocaine; within fifteen minutes; cited from earlier work
migraine [8] = conditions: lidocaine, Intranasal Spray; 10-point pain scale
acute migraine episodes [9] = type: in vivo, human
Text: as §1, with “ropivacaine” for “bupivacaine”, “Ropivacaine” for “Bupivacaine”
Ropivacaine-HCl (NAROPINT™, Astra USA, Westborough, Mass.) was used as the commercially-available 0.75% (w/v) solution, and was obtained in 30 milliliter, sterile injectable vials.
Three methods were used to achieve dorsonasal delivery of ropivacaine to individual patients. Ropivacaine was administered to a first group of patients by an intranasal drip method. Ropivacaine was administered to a second group using cotton swabs, the absorbent portions of which were saturated with the ropivacaine solution. Ropivacaine was administered to patients in a third group by spraying the ropivacaine solution into each nostril, using either a squeeze-type spray bottle or a metered-dose spray bottle.
The intranasal drip method used to administer ropivacaine to the first group of patients was a based on the method described by Barre (1982, Headache 22:69-73), except that the ropivacaine solution was used in place of the solution used by Bane. Approximately 0.75 milliliter to approximately 1.0 milliliter of the ropivacaine solution was administered by way of each of the nostrils of each patient.
The cotton swab method used to administer ropivacaine to the second group of patients comprised gently inserting cotton swabs, sequentially and bilaterally, into the nostrils of patients and urging the swabs dorsally until their absorbent portions contacted portions of nasal epithelium located dorsal to the middle conchae. Each swab was left in place for approximately one minute, and was then withdrawn. Approximately 0.5 milliliter of the ropivacaine solution was delivered to each nostril using this method.
Patients in a third group were administered ropivacaine by spraying less than about 0.5 milliliter of the ropivacaine solution into each of the patient's nostrils using either a sterile squeeze bottle or a sterile metered-dose spray bottle of known design. The design and operation of each of these spray bottles are well known in the art.
Prior to administration of ropivacaine, each patient was placed in a supine position with the patient's head hyperextended approximately 45 degrees and rotated approximately 30 degrees to the right side. In this position, an imaginary line extending from the region of the nasal epithelium overlying the SPG of the patient through the patient's left nostril was approximately vertical. Ropivacaine was then administered to the left nostril of the patient as described for each of the three groups of patients. Ropivacaine was administered to each patient's right nostril after rotating the patient's head approximately 30 degrees to the left. Ropivacaine was administered to both nostrils of each patient to prevent cases of unilateral migraine from developing into contralateral migraine.
Prior to ropivacaine administration, each patient rated perceived headache pain according to a standard pain scale of the type used in the art. Patients were asked to rank the severity of pain which they were experiencing on a scale from 0 (no pain) to 10 (worst pain imaginable). This ten-point pain rating scale is analogous to, but has more gradations than, the four-point rating system used by the International Headache Society (IHS; Headache Classification Committee of the International Headache Society, 1988, Cephalalgia 8(Suppl. 7):19-28). Ropivacaine was administered to one nostril of each patient, and then to the other. The time required to administer ropivacaine to both nostrils of each patient was approximately three minutes. […]

nerve structure = conditions: intranasally administered; cited from earlier work
tinnitus = experiment: Inhibition of tinnitus by dorsonasal administration of ropivacaine (Example 4); type: in vivo, human; conditions: patient 4-2
Text: Ropivacaine was dorsonasally administered to each of three patients using the nasal spray method or the nasal drops method described herein.

[10] = bupivacaine 0.75% (w/v), 2 Sprays, individual patients, pain scale 0-10
[11] = bupivacaine 0.75% (w/v), 2 cc Drops, individual patient, pain scale 0-10
[12] = lidocaine 2.0% (w/v), 1 cc Drops, individual patients, pain scale 0-10

In the case of `CCCN1CCCC[C@@H]1C(=O)Nc1c(C)cccc1C` (single isomer, unassigned) [R(dextro) enantiomer of ropivacaine], the Cardiotoxicity [1] is listed as “Cardiotoxicity is a side effect”.
For `CCCCN1CCCCC1C(=O)Nc1c(C)cccc1C` (stereo not shown) [Bupivacaine, bupivacaine], the “Proportion bound to protein in vivo” value [2] is given as “Approximately 95%”, the “Partition coefficient relative to lidocaine” value [3] is given as “about 10 times” and the “Pain intensity after administration” value (muscular headache; Patient 1, from about 8, within about 15 minutes, tension headache) is given as 0. The “Pain intensity after administration” value (muscular headache; Patient 2, from about 7, within about 7 minutes, muscle contraction headache) was 0, the “Muscle knots after treatment” value (muscular headache; Patient 4, 5 minutes after treatment) was “muscle knots were no longer perceived” and the “Pain intensity after administration” value (muscular headache; Patients 3 (from about 5) and 4 (from about 7), within about 5 minutes, tension headache) was “about 1”. For the same compound, the “Relief from headache symptoms” value (headache [4]; 0.75% (w/v) bupivacaine solution via cannula with absorbent portion) was “Both of these patients experienced rapid relief”, the “Rebound of headache symptoms” value (headache [4]; 0.75% (w/v) bupivacaine solution, follow-up about one day) was “neither patient experienced rebound of headache symptoms within about one day” and the “Pain 5 min post-treatment” value (acute migraine episodes [5]; bupivacaine 0.75% (w/v), 2 Sprays, individual patients (first or 2nd treatment), pain scale 0-10, listed as B) was “Pain 5 min post-2nd-treatment: 0”. For the same compound, the “Rebound / recurrence at follow-up” value (acute migraine episodes [5]; bupivacaine 0.75% (w/v), 2 Sprays, individual patients, listed as B) was “Recurrence 4 hours post-treatmt; also recorded: No rebound up to 24 hours”, the “Pain 3 min post-treatment” value (acute migraine episodes [5]; [10]) was “Pain 3 min post-treatment: 0” and the “Pain 10 min post-treatment” value (acute migraine episodes [5]; [10]) was “Pain 10 min post-treatment: 0”. For the same compound, the “Associated symptom after treatment” value (acute migraine episodes [5]; bupivacaine 0.75% (w/v), 2 cc Drops, P2#3) was “Head pressure persisted”, the “Pain 5 min post-treatment” value (acute migraine episodes [5]; [11]) was “Pain 5 min post-treatment: 1-2” and the “Pain 10 min post-treatment” value (acute migraine episodes [5]; [11]) was “Pain 10 min post-treatment: 0”. The Rebound at follow-up (acute migraine episodes [5]; bupivacaine 0.75% (w/v), 2 cc Drops, individual patients) was “No rebound up to 24 hours”, the Rebound at follow-up (acute migraine episodes [5]; bupivacaine 0.75% (w/v), Sat'd Cotton Swab, individual patient) was “No rebound up to 24 hours” and the “Pain 5 min post-treatment” value (acute migraine episodes [5]; bupivacaine 0.75% (w/v), Sat'd Cotton Swab, individual patient, pain scale 0-10) was “Pain 5 min post-treatment: 0”. For the same compound, the “Time to arrest of migraine” value (acute migraine episodes [5]; bupivacaine 0.75% (w/v), all seven patients) was no more than 10 min, the “Rebound of migraine within twenty-four hours of treatment” value (acute migraine episodes [5]; bupivacaine 0.75% (w/v), seven patients) was “Six of the seven patients treated using bupivacaine experienced no rebound” and the “Efficacy for relief of headache pain associated with migraine” value (acute migraine episodes [5]; preliminary data) was “efficacy similar to that of ropivacaine”.
In the case of `CCN(CC)CC(=O)Nc1c(C)cccc1C` [Lidocaine, lidocaine], the “Relief from headache symptoms” value (headache [6]) is given as “All three patients experienced rapid relief”, the “Patients with decreased head pain / effectiveness to reduce migraine pain” value (migraine [7]) is given as 55% and the “Rate of Pain Relief (migraine pain reduction per minute per gram of drug)” value (migraine [8]) is given as 10.0. The “Oropharyngeal numbness” value (acute migraine episodes [9]; human, in vivo, 15 min) was 6, the “Pain 5 min post-treatment” value (acute migraine episodes [9]; [12]) was “Pain 5 min post-treatment: 2” and the “Pain 30 min post-treatment” value (acute migraine episodes [9]; [12]) was “Pain 30 min post-treatment: 6”. For the same compound, the “Pain 45 min post-treatment” value (acute migraine episodes [9]; [12]) was “Pain 45 min post-treatment: 6^B” and the Duration of action (nerve structure) was “shorter than about one hour”.
In the case of `Oc1ccc2c(c1)[C@@]13CCCC[C@@]1(O)[C@@H](C2)N(CC1CCC1)CC3` [butorphanol], the “Effect of intranasal butorphanol on chronic non-headache pain following intranasal ropivacaine” value (tinnitus) was “faster onset and a far more powerful effect”.
